The text below walks through data of PubChem BioAssay AID328 (DTP/NCI, 2004).

This test has as its system BDF1 mice, P388 leukemia ip, median survival T/C. Put plainly: NCI In Vivo Anticancer Drug Screen. Data for tumor model P388 Leukemia (intraperitoneal) in B6D2F1 (BDF1) mice. The settings on record: endpoint: median survival time, higher = longer survival. How it is done:
The antitumor activity of compounds was measured in mice bearing transplantable tumors. Survival or tumor size were measured and the results are expressed as the measurement made in the treated group (T) divided by the measurement made in the vehicle treated control group (C). The tumor model used in this assay is P388 Leukemia (intraperitoneal) in B6D2F1 (BDF1) mice

The mark [1] stands for this setting: dose: 400.0 mg/kg/injection, schedule: Q01DX009 (ip), vehicle: saline.
The mark [2] stands for this setting: dose: 50.0 mg/kg/injection, schedule: Q01DX009 (ip), vehicle: saline.
Where [3] appears, read: dose: 50.0 mg/kg/injection, schedule: Q04DX003 (ip), vehicle: saline.
Setting [4] is: dose: 100.0 mg/kg/injection, schedule: Q04DX003 (ip), vehicle: saline.
[5] abbreviates: dose: 50.0 mg/kg/injection, schedule: Q01DX009 (ip), vehicle: saline with Tween-80.
Setting [6] is: dose: 100.0 mg/kg/injection, schedule: Q01DX009 (ip), vehicle: saline with Tween-80.
Setting [7] is: dose: 200.0 mg/kg/injection, schedule: Q01DX009 (ip), vehicle: saline with Tween-80.
[8] abbreviates: dose: 25.0 mg/kg/injection, schedule: Q04DX003 (ip), vehicle: saline with Tween-80.
Where [9] appears, read: dose: 50.0 mg/kg/injection, schedule: Q04DX003 (ip), vehicle: saline with Tween-80.
Setting [10] is: dose: 100.0 mg/kg/injection, schedule: Q04DX003 (ip), vehicle: saline with Tween-80.
[11] abbreviates: dose: 200.0 mg/kg/injection, schedule: Q04DX003 (ip), vehicle: saline with Tween-80.

Where “and” joins values, the source holds several entries; their conditions need not be identical. Equal entries are not always repeated. Toxic doses and inconclusive results are not listed. Positions of bridges follow the written chain, without caps; N, C: chain ends. Non-standard residues stand in square brackets, D forms with d. Residues, ends and D or L forms follow the SMILES beside them. Chains are numbered I, II in the order given. *: point of attachment. Quinoxaline2carbonyl = O=C(c1cnc2ccccc2n1)*; NMeV = CN[CH](C(=O)O)C(C)C; NMeC = CN[CH](CS)C(=O)O

As for `O=S(=O)(N=C1C(Cl)=C(Cl)C(=NS(=O)(=O)c2ccccc2)C(Cl)=C1Cl)c1ccccc1`, the T/C was 104 % of control (dose: 100.0 mg/kg/injection, schedule: Q01DX009 (ip), vehicle: Klucel (hydroxypropylcellulose) (HPC)); 100 % of control (dose: 100.0 mg/kg/injection, schedule: Q04DX003 (ip), vehicle: Klucel (hydroxypropylcellulose) (HPC)); 86 % of control (dose: 200.0 mg/kg/injection, schedule: Q01DX009 (ip), vehicle: Klucel (hydroxypropylcellulose) (HPC)); 100 % of control (dose: 200.0 mg/kg/injection, schedule: Q04DX003 (ip), vehicle: Klucel (hydroxypropylcellulose) (HPC)); 100 % of control (dose: 400.0 mg/kg/injection, schedule: Q01DX009 (ip), vehicle: Klucel (hydroxypropylcellulose) (HPC)); 100 % of control (dose: 400.0 mg/kg/injection, schedule: Q04DX003 (ip), vehicle: Klucel (hydroxypropylcellulose) (HPC)).

Turning to `C=C1C(=O)O[C@H]2C/C(C)=C/CC/C(CO)=C/[C@@H](O)[C@H]12`, the T/C (dose: 5.5 mg/kg/injection, schedule: Q01DX009 (ip), vehicle: alcohol) was 110 % of control; the T/C (dose: 33.0 mg/kg/injection, schedule: Q01DX009 (ip), vehicle: alcohol) is 120 % of control; the T/C (dose: 50.0 mg/kg/injection, schedule: Q01DX009 (ip), vehicle: alcohol) was 95 % of control.

As for `CC1NC(=O)C(NC(=O)c2cnc3ccccc3n2)COC(=O)C(C(C)C)N(C)C(=O)C2CSSCC(C(=O)N(C)C(C(C)C)C(=O)OCC(NC(=O)c3cnc4ccccc4n3)C(=O)NC(C)C(=O)N2C)N(C)C1=O` (stereo not drawn) (I: Quinoxaline2carbonyl-SA[NMeC][NMeV] / II: Quinoxaline2carbonyl-SA[NMeC][NMeV]; ester I:1-II:C, I:C-II:1; disulfide I:3-II:3; configuration not given here), the T/C was 124 % of control (dose: 11.0 micrograms/kg/injection, schedule: Q01DX009 (ip), vehicle: saline); 115 % of control (dose: 22.5 micrograms/kg/injection, schedule: Q01DX009 (ip), vehicle: saline); 113 % of control (dose: 45.0 micrograms/kg/injection, schedule: Q01DX009 (ip), vehicle: saline); 200 % of control (dose: 90.0 micrograms/kg/injection, schedule: Q01DX009 (ip), vehicle: saline).

On to `CC1(COCCOCC2(C)CO2)CO1` (stereo not drawn), for which the T/C under setting [1] was 175 % of control and the T/C (dose: 600.0 mg/kg/injection, schedule: Q01DX009 (ip), vehicle: saline) was 208 % of control.

For the compound `CC[n+]1ccc2cc(OC)c(OC)cc2c1Cc1ccc(OC)c(OC)c1`, the T/C is, setting by setting: (dose: 25.0 mg/kg/injection, schedule: Q01DX009 (ip), vehicle: saline) 109 % of control; under setting [2], 118 % of control; under setting [3], 90 % of control; under setting [4], 104 % of control.

`O=C(CSc1ccccc1)NCc1cnccn1`: the T/C under setting [3] was 108 % of control; the T/C under setting [4] was 92 % of control; the T/C (dose: 200.0 mg/kg/injection, schedule: Q04DX003 (ip), vehicle: saline) was 104 % of control; the T/C (dose: 400.0 mg/kg/injection, schedule: Q04DX003 (ip), vehicle: saline) was 100 % of control.

On to `CC(=O)NC(Cc1ccc(N(CCCl)CCCl)cc1)C(=O)O` (stereo not drawn), for which the T/C is, setting by setting: (dose: 1.56 mg/kg/injection, schedule: Q01DX009 (ip), vehicle: water) 110 % of control; (dose: 3.12 mg/kg/injection, schedule: Q01DX009 (ip), vehicle: water) 123 % of control; (dose: 6.25 mg/kg/injection, schedule: Q01DX009 (ip), vehicle: water) 118 % of control; (dose: 12.5 mg/kg/injection, schedule: Q04DX003 (ip), vehicle: water) 172 % of control; (dose: 25.0 mg/kg/injection, schedule: Q01DX009 (ip), vehicle: water) 203 % of control; (dose: 25.0 mg/kg/injection, schedule: Q04DX003 (ip), vehicle: water) 164 % of control and 200 % of control. Besides, the T/C is, setting by setting: (dose: 50.0 mg/kg/injection, schedule: Q01DX009 (ip), vehicle: water) 248 % of control; (dose: 50.0 mg/kg/injection, schedule: Q04DX003 (ip), vehicle: water) 245 % of control and 200 % of control; (dose: 100.0 mg/kg/injection, schedule: Q04DX003 (ip), vehicle: water) 194 % of control.

For `CCN(CC)c1nc(N(C)C)nc(N(C)C)n1`, the T/C is 105 % of control under setting [5]; 99 % of control under setting [6]; 104 % of control under setting [7]; 117 % of control (dose: 400.0 mg/kg/injection, schedule: Q01DX009 (ip), vehicle: saline with Tween-80).

`Cc1ccc(S(=O)(=O)NC(=O)NNC(=O)C(F)(F)F)cc1`: the T/C is 114 % of control under setting [5], 96 % of control under setting [6] and 109 % of control under setting [7].

Turning to `Cc1c(O)ccc([N+](=O)[O-])c1O`, the T/C is, setting by setting: (dose: 6.25 mg/kg/injection, schedule: Q01DX009 (ip), vehicle: saline with Tween-80) 91 % of control; (dose: 6.25 mg/kg/injection, schedule: Q04DX003 (ip), vehicle: saline with Tween-80) 104 % of control; (dose: 12.5 mg/kg/injection, schedule: Q01DX009 (ip), vehicle: saline with Tween-80) 100 % of control; (dose: 12.5 mg/kg/injection, schedule: Q04DX003 (ip), vehicle: saline with Tween-80) 91 % of control; (dose: 25.0 mg/kg/injection, schedule: Q01DX009 (ip), vehicle: saline with Tween-80) 91 % of control; under setting [8], 104 % of control.

For `CN1CCN(C2CCCCc3ccccc32)CC1` (stereo not drawn), the T/C by setting is: under setting [8], 104 % of control; under setting [9], 113 % of control; under setting [10], 109 % of control.

Turning to `COc1cc2c(cc1OC)-c1c3c(cc4c1[C@@H](C2)N(C)CC4)OCO3`, the T/C was 100 % of control (dose: 12.5 mg/kg/injection, schedule: Q01DX009 (ip), vehicle: acid diluted with saline); 100 % of control (dose: 25.0 mg/kg/injection, schedule: Q01DX009 (ip), vehicle: acid diluted with saline); 105 % of control (dose: 50.0 mg/kg/injection, schedule: Q01DX009 (ip), vehicle: acid diluted with saline).

With `Cc1cc(C(C)(C)CC(C)(C)C)cc(O)c1O`, the T/C runs as follows: (dose: 100.0 mg/kg/injection, schedule: Q04DX003 (ip), vehicle: other) 113 % of control; (dose: 200.0 mg/kg/injection, schedule: Q04DX003 (ip), vehicle: other) 109 % of control; (dose: 400.0 mg/kg/injection, schedule: Q04DX003 (ip), vehicle: other) 100 % of control.

With `C=CC1CN2CCC1CC2C(O)c1ccnc2ccccc12` (stereo not drawn), the T/C under setting [9] was 102 % of control, the T/C under setting [10] is 88 % of control and the T/C under setting [11] was 107 % of control.

In the case of `O=c1cc(-c2ccc(OCc3ccccc3)c(-c3c(OCc4ccccc4)cc(OCc4ccccc4)c4c(=O)cc(-c5ccc(OCc6ccccc6)cc5)oc34)c2)oc2cc(OCc3ccccc3)cc(OCc3ccccc3)c12`, for the setting “dose: 100.0 mg/kg/injection, schedule: Q01DX001 (ip), vehicle: saline with Tween-80”, the T/C is 88 % of control.

`COc1nc(NC2OCC(O)C(O)C2O)c(C(=O)CCl)c(=O)n1C` (stereo not drawn): the T/C is, setting by setting: (dose: 100.0 mg/kg/injection, schedule: Q04DX002 (ip), vehicle: saline with Tween-80) 104 % of control; (dose: 200.0 mg/kg/injection, schedule: Q04DX002 (ip), vehicle: saline with Tween-80) 100 % of control; (dose: 400.0 mg/kg/injection, schedule: Q04DX002 (ip), vehicle: saline with Tween-80) 100 % of control.

As for `CCCN(CCC)CCCC#N`, the T/C under setting [9] is 100 % of control, the T/C under setting [10] was 100 % of control and the T/C under setting [11] was 100 % of control.

As for `CCOP(=O)(OCC)C(C)OC` (stereo not drawn), the T/C under setting [2] is 100 % of control and 105 % of control; the T/C (dose: 100.0 mg/kg/injection, schedule: Q01DX009 (ip), vehicle: saline) is 115 % of control and 116 % of control; the T/C (dose: 200.0 mg/kg/injection, schedule: Q01DX009 (ip), vehicle: saline) is 104 % of control and 120 % of control; the T/C under setting [1] was 100 % of control.

For `COC(=O)c1c(C)ccc2c(O)c3c(cc12)C(=O)c1c2c(cc(O)c1C3=O)C1(C)OC(C)(O2)C(O)C(N(C)C)C1O` (stereo not drawn), the T/C reads like this: (dose: 70.0 mg/kg/injection, schedule: Q01DX009 (ip), vehicle: Klucel (hydroxypropylcellulose) (HPC)) 150 % of control; (dose: 140.0 mg/kg/injection, schedule: Q01DX009 (ip), vehicle: Klucel (hydroxypropylcellulose) (HPC)) 111 % of control.

As to `CCC(=O)/C=C/C1=C(C)CCCC1(C)C`, the T/C is 104 % of control under setting [9], 104 % of control under setting [10] and 95 % of control under setting [11].
